Test results taken from the NIST ThermoML archive (doi:10.1016/j.tca.2004.11.015).
Numbers after ± are expanded uncertainties.

Assay: xn = mol fraction of the nth substance listed
Details: 101.33 kPa, Liquid, Vibrating tube method

NCCO [2-aminoethan-1-ol] + CO
mass density [kg/m3]
Details | 298.15 K | 303.15 K | 308.15 K | 313.15 K | 318.15 K
x1 = 0.012 | – | 787.1 ± 0.15 | 782.38 ± 0.15 | 777.63 ± 0.16 | 772.84 ± 0.16
x1 = 0.031 | – | 795.25 ± 0.15 | 790.55 ± 0.15 | 785.84 ± 0.15 | 781.09 ± 0.16
x1 = 0.05 | – | 803 ± 0.15 | 798.35 ± 0.15 | 793.66 ± 0.15 | 788.95 ± 0.16
x1 = 0.1 | – | 822.49 ± 0.15 | 817.92 ± 0.15 | 813.31 ± 0.15 | 808.68 ± 0.16
x1 = 0.15 | – | 840.37 ± 0.16 | 835.87 ± 0.16 | 831.33 ± 0.16 | 826.77 ± 0.16
x1 = 0.2002 | – | 857.06 ± 0.17 | 852.62 ± 0.17 | 848.14 ± 0.17 | 843.64 ± 0.17
x1 = 0.2501 | – | 872.24 ± 0.18 | 867.83 ± 0.19 | 863.41 ± 0.19 | 858.96 ± 0.19
x1 = 0.2974 | – | 885.69 ± 0.2 | 881.34 ± 0.2 | 876.95 ± 0.2 | –
x1 = 0.3502 | – | 899.65 ± 0.22 | 895.33 ± 0.22 | 891 ± 0.22 | –
x1 = 0.4001 | – | 911.58 ± 0.24 | 907.3 ± 0.24 | 903 ± 0.24 | –
x1 = 0.4427 | – | 921.28 ± 0.26 | 917.02 ± 0.26 | 912.75 ± 0.26 | –
x1 = 0.4502 | – | 923.08 ± 0.26 | 918.84 ± 0.26 | 914.57 ± 0.26 | –
x1 = 0.5002 | – | 933.46 ± 0.28 | 929.24 ± 0.28 | 925 ± 0.28 | –
x1 = 0.5501 | – | 943.18 ± 0.3 | 938.99 ± 0.3 | 934.78 ± 0.3 | –
x1 = 0.6001 | 956.54 ± 0.32 | 952.39 ± 0.32 | 948.22 ± 0.32 | 944.04 ± 0.31 | –
x1 = 0.6501 | 965.1 ± 0.34 | 960.97 ± 0.34 | 956.84 ± 0.34 | 952.68 ± 0.34 | –
x1 = 0.7005 | 973.37 ± 0.36 | 969.28 ± 0.36 | 965.16 ± 0.36 | 961.03 ± 0.36 | –
x1 = 0.7479 | 980.32 ± 0.38 | 976.24 ± 0.38 | 972.15 ± 0.38 | 968.04 ± 0.38 | –
x1 = 0.8002 | 988.11 ± 0.41 | 984.06 ± 0.41 | 980 ± 0.41 | 975.92 ± 0.41 | –
x1 = 0.8502 | 994.53 ± 0.43 | 990.5 ± 0.43 | 986.45 ± 0.43 | 982.4 ± 0.43 | –
x1 = 0.8967 | 1000.67 ± 0.46 | 996.66 ± 0.46 | 992.63 ± 0.46 | 988.6 ± 0.45 | –
x1 = 0.9501 | 1006.88 ± 0.49 | 1002.89 ± 0.48 | 998.89 ± 0.48 | 994.88 ± 0.48 | –
